Data set [1] is described as follows: Molar enthalpy of transition or fusion. The settings on record: Crystal; DSC.
The conditions of data set [2]: Crystal; DTA.

Numbers after ± are expanded uncertainties.

Take `O=C(O)CCCCCC(=O)O` [1,7-heptanedioic acid]: the “Molar enthalpy of transition or fusion” value in data set [1] was determined as 6.88 ± 0.287 kcal/mol. Further, the Normal melting temperature in data set [2] was 104.2 ± 0.53 °C.

On to `CC(C(=O)O)C(C)C(=O)O` (stereo not drawn) [2,3-dimethyl-1,4-butanedioic acid], for which, in data set [1], the “Molar enthalpy of transition or fusion” value is 4.04 ± 0.167 kcal/mol. The Normal melting temperature in data set [2] is 121.33 ± 0.53 °C.

In the case of `CC(CC(=O)O)CC(=O)O` [3-methylpentanedioic acid], the “Molar enthalpy of transition or fusion” value in data set [1] amounted to 7.41 ± 0.335 kcal/mol. Also, the Normal melting temperature in data set [2] was found to be 85.46 ± 0.53 °C.

Take `O=C(O)c1ccccc1` [benzoic acid]: in data set [1], the “Molar enthalpy of transition or fusion” value was 4.47 ± 0.172 kcal/mol. Moreover, the Normal melting temperature in data set [2] was determined as 122.93 ± 0.53 °C.

(Values after the NIST ThermoML archive (doi:10.1021/je200681k).)
